Read-outs that look alike come from different tables or passages of the source.
B1: EC340: endolysin of E. coli bacteriophage PBEC131 (EC340-M-11-12), 162 amino acids (protein)
chain: VSRNISNNGIKFTAAFEGFRGTAYRATPNEKYLTIGYGHYGPDVTPGKTITPGQGLLLLNRDMAKAVAAVDAAAHHSLTQAQFDAVCDLVYNAGAGVIAATTGTGKALRSGDIATLRAKLALFINQNGKPLLGLRRRTAGRLALFDGKPWQEAEAIGRAVKG
modifications: synthetic_EC340
notes: endolysin of E. coli bacteriophage PBEC131 (EC340-M-11-12), 162 amino acids

Experiments:
K. pneumoniae [1] = conditions: K. pneumoniae CCARM 10143; cited from earlier work
E. coli [2] = conditions: cited from earlier work
E. coli ATCC 8739 = test: Zymogram assay; type: biochemical, Escherichia coli; conditions: 3 μg purified endolysin, gel with autoclaved E. coli ATCC 8739
Method: Zymogram assay was performed with some modifications of the previously described method (Khakhum et al., 2016). In other words, an overnight culture of E. coli ATCC 8739 was harvested, washed with phosphate buffered solution (PBS) once, and then harvested by centrifugation at 4,000×g for 15 minutes. Then, the pellets were resuspended in 3 ml of deionized water. The cells were autoclaved and added to a 15% SDS-PAGE gel prior to polymerization. Then, 3 μg of purified endolysin (EC340, mtEC340 or LNT113) was mixed with 2× sample buffer (0.5 mM Tris-HCl, pH 6.8, 20% glycerol, 0.2% bromophenol blue) and loaded on SDS-PAGE. After electrophoresis, the gel was washed with deionized water for 1 hour and incubated in reaction buffer (1% Triton X-100, 20 mM Tris-HCl, pH 7.5) at a room temperature.

K. pneumoniae [3] = test: Antibacterial activity analysis (colony count after 2 hours in buffer); type: cell-based, Klebsiella pneumoniae; conditions: 2 μM
Method: (§1) The antibacterial activity of the purified protein was tested for E. coli and various K. pneumoniae strains. The bacterium were grown to an exponential phase (OD600=0.5) and harvested by centrifugation at 12,000×g for 3 minutes. Then, the pellets were washed with reaction buffer solution (20 mM Tris-HCl, pH 7.5) and diluted to about 10^6 cells/ml in the buffer solution. Then, 100 μl bacterial suspension was mixed with the purified endolysin of 100 μl in the reaction buffer solution and incubated at 37° C. for 2 hours. Finally, the mixture was diluted with PBS and loaded on an LB plate. After culturing at 37° C. overnight, the bacterial colonies were counted. All the analysis was performed in triplicate.
(§2) The same reaction was performed for the selected subject bacterium in 20 mM HEPES-NaOH, 150 mM NaCl [pH 7.4], and the unique antibacterial activity of Tris and dependence of endolysin for turgor pressure were excluded (FIG. 10a and FIG. 10b). […] The bacterial cells grown geometrically were cultured with 2 μM endolysin in low tonicity buffers (20 mM Tris-HCl, pH 7.5 or 20 mM HEPES, pH 7.5) or high tonicity buffers (buffer solution comprising 150 mM NaCl) at 37° C. for 2 hours. The cells treated with storage buffer solution (20 mM Tris-HCl, pH 7.5, 150 mM NaCl buffer solution (pH 7.5)) were used as a negative control group. The dotted line represents the detection limit (1 Log CFU/ml).

E. coli [4] = test: Checkerboard assay (MIC in combination, FIC index); type: cell-based, Escherichia coli; conditions: E. coli ATCC8738
Method: LNT113 was vertically diluted 2-fold and the antibiotic was serially diluted horizontally in a 96-well plate. Bacterium at a concentration of 10^6 CFU/ml were added to each well in a CAA medium. […] The fractional inhibitory concentration (FIC) for the LNT113 or antibiotic was calculated by dividing the MIC of two drugs by combining it with the MIC of each drug alone. […] The FICI was considered as a synergistic effect ≤0.5, an additive >0.5 ˜≤1, an independent effect (indifference)>1.0 ˜≤2, and an antagonistic effect (antagonism) >2.

E. coli [5] = test: Antibacterial activity analysis (colony count after 2 hours in buffer); type: cell-based, Escherichia coli; conditions: 2 μM
Method: as §1, §2
(§3) For this, endolysin EC340 at a concentration of 2 μM and each test bacterium were added to reaction buffer (20 mM Tris-Cl, pH 7.5) so that the final concentration was to be 200 μl, and were left at 37° C. for 2 hours. After 2 hours, the number of colonies of Acinetobacter baumannii, Pseudomonas aeruginosa and Escherichia coli was confirmed, and the result was shown in FIG. 3.

[6] = tested on: Pseudomonas aeruginosa (ATCC 13388); test: Killing activity of endolysin, in vitro test; type: cell-based; conditions: 2 μM, 37° C., 2 hours, 20 mM Tris-Cl pH 7.5
Method: as §3

[7] = tested on: Acinetobacter baumannii (ATCC19606); test: Killing activity of endolysin, in vitro test; type: cell-based; conditions: 2 μM, 37° C., 2 hours, 20 mM Tris-Cl pH 7.5
Method: as §3

Molecule | MIC of antibiotics (K. pneumoniae [1]) | MIC of antibiotics (E. coli [2]; E. coli CCARM 1A746) | MIC of antibiotics (E. coli [2]; E. coli CCARM 1B684) | other results
Gentamicin | ≥128 µg/mL | ≥128 µg/mL | 128 µg/mL | –
CO/N=C(\C(=O)N[C@@H]1C(=O)N2C(C(=O)O)=C(COC(C)=O)CS[C@H]12)c1csc(N)n1 [Cefotaxime] | 16 µg/mL | 128 µg/mL | 0.25 µg/mL | –
Trimethoprim-sulfamethoxazole | ≥32 µg/mL | ≥128 µg/mL | – | –
O=C(O)c1cn(C2CC2)c2cc(N3CCNCC3)c(F)cc2c1=O [Ciprofloxacin] | ≤0.25 µg/mL | 128 µg/mL | 64 µg/mL | –
CC(=O)OCC1=C(C(=O)O)N2C(=O)[C@@H](NC(=O)Cc3cccs3)[C@H]2SC1 [Cephalothin] | ≥128 µg/mL | ≥128 µg/mL | 64 µg/mL | –
B1 | – | – | – | enzymatic activity in zymogram (E. coli ATCC 8739): enzymatic activity was observed; antibacterial activity (number of bacterium) (K. pneumoniae [3]; K. pneumoniae ATCC700603, KCTC2208, CCARM10143, F85, 2 hours, Tris-HCl pH 7.5): excellent antibacterial activity; effect of adding NaCl on antibacterial activity (K. pneumoniae [3]; K. pneumoniae KCTC 2208, Tris or Hepes buffer with 150 mM NaCl): almost inactivated; MIC of endolysin combined with colistin: EC340 (E. coli [4]; Colistin 0): >128 µg/mL; MIC of endolysin combined with colistin: EC340 (E. coli [4]; Colistin 0.0625): 32 µg/mL; MIC of endolysin combined with colistin: EC340 (E. coli [4]; Colistin 0.125): 16 µg/mL; MIC of endolysin combined with colistin: EC340 (E. coli [4]; Colistin 0.25): <2 µg/mL; antibacterial activity (number of bacterium) (E. coli [5]; E. coli ATCC8739, ATCC25922, CCARM1A746, CCARM1B684, 2 hours, Tris-HCl pH 7.5): excellent antibacterial activity; effect of adding NaCl on antibacterial activity (E. coli [5]; E. coli ATCC 8739, Tris or Hepes buffer with 150 mM NaCl): almost inactivated; killing activity (E. coli [5]; Escherichia coli (ATCC 8739), 37° C., 2 hours, 20 mM Tris-Cl pH 7.5): had the killing activity; killing activity [6]: had the killing activity; killing activity [7]: had the killing activity

Source: patent US12102667B2, “Polypeptides and antibiotics against gram-negative bacterium comprising the same” (priority 2021, dated 2024)
